Measured values reported in PubChem BioAssay (NCI).
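Assay format: 96-well plates, 48-hour exposure. TGI marks complete inhibition of growth.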

Columns and labels:
Assay in all cases: growth of human tumour cells (NCI), 48 h
SK-OV-3 ovarian = system: SK-OV-3 ovarian
PC-3 prostate = system: PC-3 prostate
UO-31 renal = system: UO-31 renal
SNB-19 CNS = system: SNB-19 CNS
CCRF-CEM leukemia = system: CCRF-CEM leukemia
U251 CNS = system: U251 CNS
ACHN renal = system: ACHN renal
HOP-62 NSCLC = system: HOP-62 NSCLC
TK-10 renal = system: TK-10 renal
UACC-62 melanoma = system: UACC-62 melanoma
RPMI-8226 leukemia = system: RPMI-8226 leukemia
MCF7 breast = system: MCF7 breast
HCT-15 colon = system: HCT-15 colon
K-562 leukemia = system: K-562 leukemia
A549 NSCLC = system: A549 NSCLC
UACC-257 melanoma = system: UACC-257 melanoma
SK-MEL-28 melanoma = system: SK-MEL-28 melanoma
OVCAR-8 ovarian = system: OVCAR-8 ovarian
SK-MEL-2 melanoma = system: SK-MEL-2 melanoma
HS 578T breast = system: HS 578T breast
SF-295 CNS = system: SF-295 CNS
NCI-H23 lung = system: NCI-H23 lung
HCT-116 colon = system: HCT-116 colon
MDA-MB-231 breast = system: MDA-MB-231 breast
SF-268 CNS = system: SF-268 CNS
SR leukemia = system: SR leukemia
OVCAR-3 ovarian = system: OVCAR-3 ovarian
MDA-MB-435 = system: MDA-MB-435
KM12 colon = system: KM12 colon
MOLT-4 leukemia = system: MOLT-4 leukemia
A498 renal = system: A498 renal
HT29 colon = system: HT29 colon
786-0 renal = system: 786-0 renal
CAKI-1 renal = system: CAKI-1 renal
NCI-H226 lung = system: NCI-H226 lung
SW-620 colon = system: SW-620 colon
SN12C renal = system: SN12C renal
NCI-H460 lung = system: NCI-H460 lung
OVCAR-5 ovarian = system: OVCAR-5 ovarian
COLO 205 colon = system: COLO 205 colon
SF-539 CNS = system: SF-539 CNS
IGROV1 ovarian = system: IGROV1 ovarian
M14 melanoma = system: M14 melanoma
NCI/ADR-RES ovarian = system: NCI/ADR-RES ovarian
EKVX NSCLC = system: EKVX NSCLC
DU-145 prostate = system: DU-145 prostate
LOX IMVI melanoma = system: LOX IMVI melanoma
HL-60(TB) leukemia = system: HL-60(TB) leukemia
BT-549 breast = system: BT-549 breast
SK-MEL-5 melanoma = system: SK-MEL-5 melanoma
MDA-N = system: MDA-N
T-47D breast = system: T-47D breast
HOP-92 NSCLC = system: HOP-92 NSCLC
SNB-75 CNS = system: SNB-75 CNS

Measured: TGI

CC(=O)/C(N=Nc1ccc(-n2c(C)nc3ccccc3c2=O)cc1)=C(/C)O
> 100 µM: all assays above
